Reference: the CheMixHub viscosity set

Experiment: xn = mol fraction of the nth substance listed

CCCCCCCCC + CCCCCCCCCC
298.15 K, 101.33 kPa
Conditions | viscosity [mPa·s]
x1 = 0.1051 | 0.8387
x1 = 0.2082 | 0.8061
x1 = 0.3045 | 0.7835
x1 = 0.4048 | 0.7761
x1 = 0.5057 | 0.7535
x1 = 0.6085 | 0.7344
x1 = 0.7065 | 0.7185
x1 = 0.806 | 0.6913
x1 = 0.897 | 0.6734

CCCCCC(=O)[O-].[Na+] + CCCCCCCCCC(=O)O
100 kPa, x1 = 0.3
Conditions | viscosity [mPa·s]
293.15 K | 285.4
298.15 K | 213.6
303.15 K | 162.3
308.15 K | 125.7
313.15 K | 98.9
318.15 K | 79
323.15 K | 63.9

CCCCCCCCC + CCCCCCCCCCCC
298.15 K, 101.33 kPa
Conditions | viscosity [mPa·s]
x1 = 0.0957 | 1.273
x1 = 0.1995 | 1.187
x1 = 0.3049 | 1.111
x1 = 0.4056 | 1.022
x1 = 0.5088 | 0.969
x1 = 0.6103 | 0.8955
x1 = 0.7039 | 0.8282
x1 = 0.8049 | 0.7721
x1 = 0.9023 | 0.7118

CCCCCCCCC + CCCCCCCCCCCCCCCC
298.15 K, 101.33 kPa
Conditions | viscosity [mPa·s]
x1 = 0.1105 | 2.698
x1 = 0.2002 | 2.416
x1 = 0.3173 | 2.072
x1 = 0.4054 | 1.832
x1 = 0.5056 | 1.571
x1 = 0.5795 | 1.404
x1 = 0.7077 | 1.152
x1 = 0.8024 | 0.9655
x1 = 0.8988 | 0.8177

CCCCCCCCc1ccccc1 + CCCCCCCCCCCCCCCC
viscosity [mPa·s], 102 kPa
Conditions | x1 = 0.1177 | x1 = 0.2297 | x1 = 0.3377 | x1 = 0.4423 | x1 = 0.5431 | x1 = 0.6411 | x1 = 0.7351 | x1 = 0.8263 | x1 = 0.9146
293.15 K | 3.28 | 3.16 | 3.05 | 2.94 | 2.85 | 2.78 | 2.71 | 2.65 | 2.62
303.15 K | 2.61 | 2.52 | 2.44 | 2.36 | 2.3 | 2.25 | 2.19 | 2.15 | 2.12
313.15 K | 2.13 | 2.06 | 2 | 1.94 | 1.89 | 1.86 | 1.81 | 1.78 | 1.76
323.15 K | 1.77 | 1.72 | 1.67 | 1.63 | 1.59 | 1.56 | 1.52 | 1.5 | 1.48

CC(=O)c1ccccc1 + CCCCCO
298.15 K, 101 kPa
Conditions | viscosity [mPa·s]
x1 = 0.0754 | 3.104
x1 = 0.155 | 3.016
x1 = 0.2392 | 2.918
x1 = 0.3285 | 2.801
x1 = 0.4232 | 2.657
x1 = 0.524 | 2.498
x1 = 0.6313 | 2.31
x1 = 0.7459 | 2.102
x1 = 0.8685 | 1.898

C1COCO1 + CCCCO
viscosity [mPa·s], 101 kPa
Conditions | 298.15 K | 303.15 K | 313.15 K
x1 = 0.1001 | – | 1.74 | –
x1 = 0.1022 | 1.884 | – | 1.354
x1 = 0.1981 | 1.493 | – | 1.109
x1 = 0.2001 | – | 1.373 | –
x1 = 0.3001 | – | 1.113 | –
x1 = 0.3055 | 1.201 | – | 0.9166
x1 = 0.4001 | – | 0.9587 | –
x1 = 0.4054 | 1.014 | – | 0.7915
x1 = 0.5001 | – | 0.8419 | –
x1 = 0.5008 | 0.8912 | – | 0.7023
x1 = 0.6001 | – | 0.7305 | –
x1 = 0.6035 | 0.7757 | – | 0.6292
x1 = 0.7001 | – | 0.6582 | –
x1 = 0.7024 | 0.6998 | – | 0.5763
x1 = 0.8001 | – | 0.6192 | –
x1 = 0.8009 | 0.6441 | – | 0.5372
x1 = 0.9001 | – | 0.5873 | –
x1 = 0.9002 | 0.6073 | – | 0.5116

CN(C)P(=O)(N(C)C)N(C)C + CCCCO
303.15 K, 101.3 kPa
Conditions | viscosity [mPa·s]
x1 = 0.0872 | 2.283
x1 = 0.1988 | 2.312
x1 = 0.2977 | 2.351
x1 = 0.3888 | 2.404
x1 = 0.4941 | 2.487
x1 = 0.5894 | 2.567
x1 = 0.6891 | 2.655
x1 = 0.7954 | 2.745
x1 = 0.8991 | 2.834

CC(=O)c1ccccc1 + CCCCOC(C)=O
viscosity [mPa·s], 101 kPa
Conditions | x2 = 0.0904 | x2 = 0.1786 | x2 = 0.2746 | x2 = 0.37 | x2 = 0.4671 | x2 = 0.5675 | x2 = 0.672 | x2 = 0.7729 | x2 = 0.8848
298.15 K | 1.557 | 1.452 | 1.341 | 1.232 | 1.129 | 1.028 | 0.933 | 0.848 | 0.763
303.15 K | 1.405 | 1.312 | 1.212 | 1.115 | 1.024 | 0.934 | 0.849 | 0.772 | 0.696
308.15 K | 1.29 | 1.207 | 1.119 | 1.034 | 0.95 | 0.87 | 0.792 | 0.724 | 0.655
313.15 K | 1.188 | 1.112 | 1.032 | 0.954 | 0.877 | 0.804 | 0.734 | 0.671 | 0.608

C1COCO1 + CCCCOCCO
298.15 K, 101 kPa
Conditions | viscosity [mPa·s]
x1 = 0.1506 | 2.2
x1 = 0.2851 | 1.773
x1 = 0.4061 | 1.465
x1 = 0.5154 | 1.229
x1 = 0.6147 | 1.053
x1 = 0.7053 | 0.9156
x1 = 0.7882 | 0.8012
x1 = 0.8645 | 0.7116
x1 = 0.9349 | 0.6419

CCCOCC(C)O (centres undefined) + CCCNCCC
viscosity [mPa·s], 100 kPa
Conditions | 298.15 K | 303.15 K | 308.15 K
x1 = 0.0501 | 0.5507 | 0.5133 | 0.4872
x1 = 0.1003 | 0.6065 | 0.556 | 0.5257
x1 = 0.1502 | 0.6545 | 0.6056 | 0.571
x1 = 0.1999 | 0.7308 | 0.6597 | 0.6196
x1 = 0.3 | 0.8816 | 0.7957 | 0.7427
x1 = 0.4 | 1.089 | 0.969 | 0.894
x1 = 0.4999 | 1.294 | 1.144 | 1.052
x1 = 0.6 | 1.558 | 1.351 | 1.228
x1 = 0.6999 | 1.823 | 1.571 | 1.415
x1 = 0.7997 | 2.079 | 1.784 | 1.603
x1 = 0.8999 | 2.275 | 1.945 | 1.748
x1 = 0.9498 | 2.357 | 2.016 | 1.815

C1COCO1 + CCCO
303.15 K, 101 kPa
Conditions | viscosity [mPa·s]
x1 = 0.08269 | 1.258
x1 = 0.1686 | 1.067
x1 = 0.258 | 0.9345
x1 = 0.351 | 0.8208
x1 = 0.4479 | 0.7339
x1 = 0.5489 | 0.6454
x1 = 0.6543 | 0.592
x1 = 0.7644 | 0.5684
x1 = 0.8795 | 0.5564

CN(C)P(=O)(N(C)C)N(C)C + CCCO
303.15 K, 101.3 kPa
Conditions | viscosity [mPa·s]
x1 = 0.0989 | 1.896
x1 = 0.1996 | 1.991
x1 = 0.3022 | 2.102
x1 = 0.4027 | 2.217
x1 = 0.4525 | 2.272
x1 = 0.598 | 2.444
x1 = 0.6994 | 2.569
x1 = 0.7809 | 2.666
x1 = 0.8672 | 2.766
